In brackets after ≈: the same amount, converted by molar mass. Blank lines part the entries; values can stand above or below the molecule they belong to.
Key:
P. aeruginosa = test: MIC, 96-well CAMHB, 10^5 to 10^2 CFU/mL in 24 hours; format: cell-based, Pseudomonas aeruginosa; details: Pseudomonas aeruginosa; Table 3A c2; read-out: MICs (μg/mL): P. aeruginosa
Procedure, shortened: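 Broth microdilution in CAMHB with about 5×10^5 CFU/mL inoculum, incubated 24 h at 37 °C with graded polyamine compound concentrations. Surviving CFU/mL determined by plating each well on TSA for 24 h at 37 °C; n=8 per concentration.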

P. aeruginosa biofilms [1] = test: MBEC, MBEC Inoculation Tray (Innovotech), to 10^2 CFU/peg in 24 hours; format: cell-based; details: Pseudomonas aeruginosa; Table 3A c5; group head missing, probably MBEC; read-out: MICs (μg/mL): P. aeruginosa (second P. aeruginosa)
Source text: To determine the MBEC of each polyamine compound, the MBEC Inoculation Tray by Innovotech, formerly known as the Calgary biofilm device, was used. Within this device, biofilms grow on the surface of polystyrene pegs, 96 of which are attached to a lid. These pegs are inserted into a flat bottom 96-well plate. In this instance, the MBEC of a molecule was defined as the concentration of compound (in μg/mL) required to reduce 10^5 or 10^6 CFU/peg (biofilm levels varied by isolate) to 10^2 CFU/peg in a 24-hour period.
Following the manufacturer's guidelines, biofilms were grown on the surface of each peg by first making a 0.5 McFarland of each isolate. The 0.5 McFarland was diluted 1:100 in CAMHB. Into each well of a flat bottom 96-well plate, 150 μL of broth were pipetted. The plate was shaken at 100 rpm for 24 hours (P. aeruginosa and A. baumannii) or 48 hours (MRSA). The pegs were then placed into a separate flat bottom 96-well plate for 10 seconds with 200 μL of phosphate buffered saline (PBS) in each well to remove nonadherent cells. The lid was then placed into a 96-well plate that contained varying concentrations of antimicrobial with 200 μL per well. The plate was incubated for 24 hours at 37° C. after which time 100 μL of broth were plated on TSA. TSA plates were incubated 24 hours at 37° C. and the number of CFU counted to calculate the CFU/peg. […]

P. aeruginosa biofilms [2] = test: EBEC, high number biofilms on PEEK membranes, 10^9 to 10^2 CFU/PEEK membrane in 24 hours; format: cell-based; details: Pseudomonas aeruginosa; Table 3B c3; group head missing; read-out: MICs (μg/mL) II: P. aeruginosa
Protocol: In addition to determining the MIC and the MBEC of polyamine compounds against planktonic bacteria and low number biofilms, our group wanted to determine the efficacy of polyamine compounds against high number biofilms. To do so, biofilms were grown on the surface of polyetheretherketone (PEEK) membranes using a membrane biofilm reactor. This reactor is similar to the CDC biofilm reactor, but rather than growing biofilms on coupon surfaces, the reactor was modified to hold PEEK membranes. In short, to grow biofilms within this system, 500 mL of brain heart infusion (BHI) broth were inoculated with 1 mL of a 0.5 McFarland. The reactor was placed on a hot plate set at 34° C. and the bacteria were grown under batch conditions for 24 hours. Following this protocol, biofilms typically grow to 10^9 CFU/PEEK membrane. […] A solution of 10% BHI was then flowed through the reactor at a rate of 6.94 mL/min for an additional 24 hours. PEEK membranes were then removed and placed into 2 mL of CAMHB that contained a desired concentration of polyamine compound or antibiotic. The EBEC was defined as the concentration of antimicrobial required to reduce a biofilm from approximately 10^9 CFU/PEEK membrane to approximately 10^2 CFU/PEEK membrane in a 24-hour period.

L-929 cells (ATCC CCL-1) = test: Minimal Essential Media (MEM) Elution cytotoxicity test; format: cell-based; details: Table 9A
Procedure, shortened: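 L-929 cells (ATCC CCL-1) were seeded in multiwell plates and grown to roughly 80% confluence. Test article dilutions (1:2, 1:4, 1:8, 1:16) and control extracts were applied in triplicate and incubated 48±3 hours at 37±1° C. in 5±1% CO2. Wells were scored microscopically for morphological cytotoxicity on a 0–4 scale and averaged; Pass required grade not greater than 2 per USP <87>.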

biofilms of MRSA = details: understanding of the inventors; no own test described; cited from earlier work
biofilm formation = details: study by Losick and co-workers (Kolodkin-Gal et al., Cell 149 (2012)); cited from earlier work

MIC (P. aeruginosa): 2 µg/mL (≈ 4.28 µM)
MIC (P. aeruginosa biofilms [1]): 100 µg/mL (≈ 214 µM)
MIC (P. aeruginosa biofilms [2]): 2000 µg/mL (≈ 4280 µM)
SMILES: NC[C@H]1O[C@H](O[C@H]2[C@H](O)[C@@H](O[C@H]3O[C@H](CO)[C@@H](O)[C@H](N)[C@H]3O)[C@H](N)C[C@@H]2N)[C@H](N)C[C@@H]1O [Tobramycin, tobramycin, reference compound]

SMILES: O=CCCCC=O [glutaraldehyde, Glutaraldehyde, reference compound]
Results Pass/Fail (L-929 cells (ATCC CCL-1); 3.125 μg/mL): Pass (receives a passing score (Pass) if the reactivity grade is not greater than grade 2 or a mild reactivity)
Results Pass/Fail (L-929 cells (ATCC CCL-1); 6.25 μg/mL): Fail (a numerical grade greater than 2 is considered a cytotoxic effect, or a failing score (Fail))
Results Pass/Fail (L-929 cells (ATCC CCL-1); 12.5 μg/mL): Fail (a numerical grade greater than 2 is considered a cytotoxic effect, or a failing score (Fail))
Results Pass/Fail (L-929 cells (ATCC CCL-1); 25 μg/mL): Fail (a numerical grade greater than 2 is considered a cytotoxic effect, or a failing score (Fail))
Results Pass/Fail (L-929 cells (ATCC CCL-1); 1.563 (unit not given)): Pass (receives a passing score (Pass) if the reactivity grade is not greater than grade 2 or a mild reactivity)
biofilm dispersal effect (comparison) (biofilms of MRSA): not seen

SMILES: NCCCNCCCN [norspermidine, N-(3-aminopropyl)propane-1,3-diamine]
concentration inhibiting biofilm formation (biofilm formation): 25 µM

SMILES: NCCCCNCCCN [spermidine]
concentration at which active (biofilm formation) (biofilm formation): ~1 mM
